Experimental data as given in PMC11084212, “Nontraditional Roles of Magnesium Ions in Modulating Sav2152: Insight from a Haloacid Dehalogenase-like Superfamily Phosphatase from Staphylococcus aureus” (International Journal of Molecular Sciences, 2024).

Biological target: T1, Sav2152 (Staphylococcus aureus, UniProt A0A0H3JWK0)
T1 construct: monomer; C-terminus (res. 234-285) disordered in crystal
Test: EnzChek phosphatase assay, DiFMU release
Assay type: biochemical
Conditions: 100 uM DiFMUP, 10 uM protein, 1 mM Mg2+, 100 mM NaCl, 25 mM Tris-HCl pH 7.0

T1 sequence (A0A0H3JWK0 entry or part of it): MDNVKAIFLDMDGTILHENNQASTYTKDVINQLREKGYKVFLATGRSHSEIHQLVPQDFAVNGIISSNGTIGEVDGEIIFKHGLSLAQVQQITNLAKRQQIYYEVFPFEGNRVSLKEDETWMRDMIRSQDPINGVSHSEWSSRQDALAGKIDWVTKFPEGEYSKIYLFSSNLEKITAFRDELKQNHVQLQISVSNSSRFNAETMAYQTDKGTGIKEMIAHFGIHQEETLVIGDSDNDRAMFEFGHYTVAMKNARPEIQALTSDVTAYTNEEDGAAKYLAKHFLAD

## Cc1cc(=O)oc2c(F)c(OP(=O)(O)O)c(F)cc12 [DiFMUP]
  EnzChek phosphatase assay, DiFMU release: enzymatic activity of this protein was investigated using a simple phosphatase assay kit with DiFMUP
